The test system of test [1] is human adipocytes. Kind of test: Human adipocyte [Ca2+]i, fura-2 imaging (Example 4). It is filed as cell-based.
The subject of test [2] is human adipocytes. Kind of test: FAS activity in human adipocytes (Example 4). The class given is cell-based. How it is done: A human adipocyte cell line and primary-cultured human adipocytes were both used as cell models in this study. The human adipocyte cell line was differentiated from human preadipocytes obtained from Zen-Bio Inc. (Research Triangle Park, N.C.). Human preadipocytes were inoculated in Dulbecco's Modified Eagle' Medium (DMEM)/Ham' F-10 medium (F-10) (1:1, v/v) containing 10% fetal bovine serum (FBS), 15mM Hepes and antibiotics at a density of 30,000 cells/cm^2. Confluent monolayers of preadipocytes were induced to differentiate with a standard differentiation medium consisting of DMEM/F-10 (1:1, v/v) medium supplemented with 15 mM Hepes, 3% FBS, 33 μM biotin, 17 μM pantothenate, 100 nM insulin, 0.25 mM methylisobutylxanthine (MIX), 1 μM dexamethasome, 1 μM BRL49653 and antibiotics. Preadipocytes were maintained in this differentiation medium for 3 days and subsequently cultured in adipocyte medium in which BRL49653 and MIX were withdrawn. Cultures were re-fed every 2-3 days (Shi, H., et al., “Role of intracellular calcium in human adipocyte differentiation,” Phyisol. Genomics. (2000) pp. 75-82, vol. 3.). Primary-cultured human adipocytes were derived from human subcutaneous adipose tissue obtained from patients undergoing abdominal plastic surgery with no known history of metabolic disorders. This protocol was approved by the Institutional Review Board for Human Subjects and the Committee for Research Participation of the University of Tennessee. Adipocytes were isolated according to the teachings of (Shi, H., et al., “Role of the sulfonylurea receptor in regulating human adipocyte metabolism,” FASEB. J. (1999) pp. 1833-38, vol. 13.). […] FAS and GPDH activity was determined spectrophotometrically in crude cytosolic extracts of human adipocytes as previously described (Shi, H., et al., “Role of the sulfonylurea receptor in regulating human adipocyte metabolism,” FASEB. J. (1999) pp. 1833-38, vol. 13). […]

The subject of test [3] is human adipocytes. Kind of test: FAS mRNA expression in human adipocytes, Northern blot (Example 4). It is filed as cell-based. The method, then:
A human adipocyte cell line and primary-cultured human adipocytes were both used as cell models in this study. The human adipocyte cell line was differentiated from human preadipocytes obtained from Zen-Bio Inc. (Research Triangle Park, N.C.). Human preadipocytes were inoculated in Dulbecco's Modified Eagle' Medium (DMEM)/Ham' F-10 medium (F-10) (1:1, v/v) containing 10% fetal bovine serum (FBS), 15mM Hepes and antibiotics at a density of 30,000 cells/cm^2. Confluent monolayers of preadipocytes were induced to differentiate with a standard differentiation medium consisting of DMEM/F-10 (1:1, v/v) medium supplemented with 15 mM Hepes, 3% FBS, 33 μM biotin, 17 μM pantothenate, 100 nM insulin, 0.25 mM methylisobutylxanthine (MIX), 1 μM dexamethasome, 1 μM BRL49653 and antibiotics. Preadipocytes were maintained in this differentiation medium for 3 days and subsequently cultured in adipocyte medium in which BRL49653 and MIX were withdrawn. Cultures were re-fed every 2-3 days (Shi, H., et al., “Role of intracellular calcium in human adipocyte differentiation,” Phyisol. Genomics. (2000) pp. 75-82, vol. 3.). Primary-cultured human adipocytes were derived from human subcutaneous adipose tissue obtained from patients undergoing abdominal plastic surgery with no known history of metabolic disorders. This protocol was approved by the Institutional Review Board for Human Subjects and the Committee for Research Participation of the University of Tennessee. Adipocytes were isolated according to the teachings of (Shi, H., et al., “Role of the sulfonylurea receptor in regulating human adipocyte metabolism,” FASEB. J. (1999) pp. 1833-38, vol. 13.). Briefly, adipose tissue was first washed several times with Hank's Balanced Salt Solution, minced into small pieces and digested with 1 mg/ml type1 collagenase in a shaking water bath at 37° C. for 30 min. […] ZERO-Dscan software (Scanalytics, Inc, Fairfax, Va.) was used to quantitatively analyze these images.

The test system of test [4] is human adipocytes. Kind of test: GPDH activity in human adipocytes (Example 4). It is filed as cell-based. How it is done: A human adipocyte cell line and primary-cultured human adipocytes were both used as cell models in this study. The human adipocyte cell line was differentiated from human preadipocytes obtained from Zen-Bio Inc. (Research Triangle Park, N.C.). Human preadipocytes were inoculated in Dulbecco's Modified Eagle' Medium (DMEM)/Ham' F-10 medium (F-10) (1:1, v/v) containing 10% fetal bovine serum (FBS), 15mM Hepes and antibiotics at a density of 30,000 cells/cm^2. Confluent monolayers of preadipocytes were induced to differentiate with a standard differentiation medium consisting of DMEM/F-10 (1:1, v/v) medium supplemented with 15 mM Hepes, 3% FBS, 33 μM biotin, 17 μM pantothenate, 100 nM insulin, 0.25 mM methylisobutylxanthine (MIX), 1 μM dexamethasome, 1 μM BRL49653 and antibiotics. Preadipocytes were maintained in this differentiation medium for 3 days and subsequently cultured in adipocyte medium in which BRL49653 and MIX were withdrawn. Cultures were re-fed every 2-3 days (Shi, H., et al., “Role of intracellular calcium in human adipocyte differentiation,” Phyisol. Genomics. (2000) pp. 75-82, vol. 3.). Primary-cultured human adipocytes were derived from human subcutaneous adipose tissue obtained from patients undergoing abdominal plastic surgery with no known history of metabolic disorders. This protocol was approved by the Institutional Review Board for Human Subjects and the Committee for Research Participation of the University of Tennessee. Adipocytes were isolated according to the teachings of (Shi, H., et al., “Role of the sulfonylurea receptor in regulating human adipocyte metabolism,” FASEB. J. (1999) pp. 1833-38, vol. 13.). Briefly, adipose tissue was first washed several times with Hank's Balanced Salt Solution, minced into small pieces and digested with 1 mg/ml type1 collagenase in a shaking water bath at 37° C. for 30 min. Adipocytes were then filtered through a sterile 500 μm nylon mesh and cultured in Dulbecco's Modified Eagle's Medium (DMEM) supplemented with 1% fetal bovine serum (FBS), 100 UI/ml penicillin, 100 μg/ml streptomycin and 50 μg/ml gentamicin. Cells were cultured in suspension and maintained in a thin layer at the top of culture media, which were changed every day. Cells were maintained viable and metabolically responsive under this culture condition for 7 days. FAS and GPDH activity was determined spectrophotometrically in crude cytosolic extracts of human adipocytes as previously described (Shi, H., et al., “Role of the sulfonylurea receptor in regulating human adipocyte metabolism,” FASEB. J. (1999) pp. 1833-38, vol. 13). Human adipocytes were homogenized in 250 mmol/L sucrose solution containing 1 mmol/L ethylenediamine-tetraacticacid (EDTA), 1 mmol/L dithiothreitol (DTT), and 100 μmol/L phenylmethylsulfonyl fluoride (PMSF) (pH 7.4). […]

Test [5] has as its system human adipocytes. Kind of test: Basal lipolysis (glycerol release) in human adipocytes (Example 4). It is filed as cell-based. How it is done: (§1) A human adipocyte cell line and primary-cultured human adipocytes were both used as cell models in this study. The human adipocyte cell line was differentiated from human preadipocytes obtained from Zen-Bio Inc. (Research Triangle Park, N.C.). Human preadipocytes were inoculated in Dulbecco's Modified Eagle' Medium (DMEM)/Ham' F-10 medium (F-10) (1:1, v/v) containing 10% fetal bovine serum (FBS), 15mM Hepes and antibiotics at a density of 30,000 cells/cm^2. Confluent monolayers of preadipocytes were induced to differentiate with a standard differentiation medium consisting of DMEM/F-10 (1:1, v/v) medium supplemented with 15 mM Hepes, 3% FBS, 33 μM biotin, 17 μM pantothenate, 100 nM insulin, 0.25 mM methylisobutylxanthine (MIX), 1 μM dexamethasome, 1 μM BRL49653 and antibiotics. Preadipocytes were maintained in this differentiation medium for 3 days and subsequently cultured in adipocyte medium in which BRL49653 and MIX were withdrawn. Cultures were re-fed every 2-3 days (Shi, H., et al., “Role of intracellular calcium in human adipocyte differentiation,” Phyisol. Genomics. (2000) pp. 75-82, vol. 3.). Primary-cultured human adipocytes were derived from human subcutaneous adipose tissue obtained from patients undergoing abdominal plastic surgery with no known history of metabolic disorders. […]

Test [6] deals with human adipocytes. Kind of test: Isoproterenol-stimulated lipolysis in human adipocytes (Example 4). It is filed as cell-based. How it is done: as §1
Another test deals with nVDR. To be noted: cited from earlier work.
In test [7] the test system is human adipocytes. Kind of test: Intracellular Ca2+ in primary cultures of human adipocytes (fura-2 fluorometry). To be noted: read-out: EC50 for increase in intracellular Ca2+. The class given is cell-based.
Method: Human subcutaneous adipose tissue was obtained from patients with no known history of metabolic disorders undergoing abdominal plastic surgery. Adipocytes were isolated by washing, mincing, collagenase digestion, and filtration as described previously and cultured in Dulbecco's modified Eagle's medium supplemented with 1% fetal bovine serum, penicillin (100 IU/ml), streptomycin (100 μg/ml), and gentamicin (50 μg/ml). Cells were cultured in suspension and maintained in a thin layer at the top of the culture media, which was changed every day. Cells were studied about 72 hours after isolation and were serum-starved prior to study.
Intracellular Ca^2+ was determined fluorometrically as described previously. Cells were washed with HEPES-buffered salt solution loaded with fura-2-acetoxymethyl ester (10 μM) for 45 minutes at 37° C. in the dark with continuous shaking. Cells were then rinsed three times, resuspended, and intracellular Ca^2+ was measured using dual excitation (340 and 380 nm)/single emission (510 nm) fluorometry. After the establishment of a stable baseline, the response to 1,25-(OH)2-D or parathyroid hormone (10 pM-100 nM) or their respective vehicles was determined. Digitonin (25 μM) and Tris/EGTA (100 mM, pH 8.7) were used to for calibration to calculate the final intracellular Ca^2+.
Test [8] relates to human adipocytes. The experiment in a line: Forskolin-stimulated lipolysis (glycerol release) in human adipocytes. The class given is cell-based. The settings on record: data not shown.

`C=C1/C(=C\C=C2/CCC[C@]3(C)[C@@H]([C@H](C)CCCC(C)(C)O)CC[C@@H]23)C[C@@H](O)C[C@@H]1O` [1α,25-(OH)2-D3, 1α,25-Dihydroxyvitamin D3]: the “[Ca2+]i response in human adipocytes” value in the test with human adipocytes [1] is “significant increase of [Ca^2+]i in human adipocyte in a dose-dependent manner”. Also, the “increase in adipocyte FAS activity” value in the test on human adipocytes [2] (5 nM, over 48 hrs) is given as 40%. The “increase in FAS mRNA expression” value in the test on human adipocytes [3] amounted to 2 fold. Further, the “increase in human adipocyte GPDH activity” value with human adipocytes [4] (5 nM) amounted to 50%.
Consider `C[C@H](CCCC(C)(C)O)[C@H]1CC[C@H]2C3=CC=C4C[C@@H](O)C[C@H](O)[C@@]4(C)[C@@H]3CC[C@]12C` [1α,25-(OH)2-lumisterol3, 1α,25-dihydroxylumisterol3], for which, in the test on human adipocytes [1], the “[Ca2+]i response in human adipocytes” value is “marked dose-responsive increases”. In addition, in the test on human adipocytes [2] (human adipocytes), the “increase in FAS activity” value was found to be 2.5 fold. The “increase in FAS mRNA expression” value in the test with human adipocytes [3] is 2.5 fold. Also, the “stimulation of GPDH activity” value in the test with human adipocytes [4] (human adipocytes) came to 2.8 fold. For the same molecule, the “inhibition of adipocyte basal lipolysis” value in the test with human adipocytes [5] turned out to be 50%. Also, the “inhibition of isoproterenol-stimulated lipolysis” value in the test with human adipocytes [6] came out at 53%. In addition, the “binding affinity to nVDR” value in the test with nVDR is reported as “low binding affinity”.
With `C=C1/C(=C\C=C2/CCC[C@]3(C)[C@@H]([C@H](C)CCCC(C)(C)O)CC[C@@H]23)C[C@@H](O)C[C@H]1O` [1β,25-(OH)2-D3, 1β,25-dihydroxyvitamin D3], the “effect of pre-treatment on 1α,25-(OH)2-lumisterol3-induced increases in [Ca2+]i” value with human adipocytes [1] (pre-treatment of human adipocytes) is listed as “completely prevented”. In addition, in the test on human adipocytes [2] (pretreatment of human adipocytes), the “effect of pretreatment on stimulation of FAS activity” value is given as “completely prevented”. Also, in the test on human adipocytes [3], the “effect on stimulation of FAS mRNA expression” value is recorded as “completely blocked”. Further, in the test on human adipocytes [4] (human adipocytes), the “effect on 1α,25-(OH)2-D3 stimulated GPDH activity” value is “little effect” and the “effect on 1α,25-(OH)2-lumisterol3 stimulated GPDH activity” value was “markedly inhibited”. The “effects on nVDR” value in the test with nVDR is recorded as “no effects”.
With `CC(C)NCC(O)c1ccc(O)c(O)c1` (centres unmarked) [isoproterenol], the increase in lipolysis in the test with human adipocytes [6] was determined as 3.2 fold.
By EC50 is commonly meant the concentration that produces a half-maximal response. Turning to parathyroid hormone [PTH], the EC50 in the test on human adipocytes [7] is roughly 10 nM. In the test on human adipocytes [8], the effect on lipolysis result is reported as “little effect”.

The record behind these values is patent publication US7704979B2, “Materials and methods for the treatment or prevention of obesity” (The University of Tennessee Research Foundation, priority 2000, dated 2010).
